Measurements reported in article PMC4992173, “Divergent synthesis and identification of the cellular targets of deoxyelephantopins” (Nature Communications, 2016).

What was measured:
[1] = target: T1, Protein HGH1 homolog (HGH1) (Homo sapiens, UniProt Q9BTY7); assay: SILAC competitive profiling with probe 24c in MCF7 lysates: HGH1; type: binding; conditions: 1 h, then 10 µM 24c
T1 construct: 1,522 proteins were enriched from MCF7 cells by 10 μM probe 24c; endogenous in cells; host or cells: MCF7
Description: In our efforts to determine the direct molecular targets of deoxyelephantopin we first performed a gel-based competitive in situ proteomic profiling assay[41] […] While the greater conformational flexibility of probe 24c could potentially lead to more promiscuous target engagement relatively to deoxyelephantopin, it was favoured based on the fact that an alkyne moiety appended to the rigid scaffold of deoxyelephantopin may hinder some of its interactions. MCF7 cells were pretreated with various concentrations of deoxyelephantopin for 4 h, harvested, lysed and the lysates were treated with the fluorogenic probe 24c-Cy3 (10 μM; Supplementary Fig. 10). […] Furthermore, cells were pretreated with 20 μM concentration of deoxyelephantopin or 24c and the proteomic profiles were compared (Fig. 6b, Supplementary Fig. 11). Multiple bands were detected that were equally competed by both DEP and 24c, thus again confirming that 24c can be used as an acceptable clickable analogue of deoxyelephantopin in pulldown assays. Having established the optimal labelling conditions by SDS–PAGE, we next carried out a mass spectrometry-based competitive profiling assay[42] coupled with the method of stable isotope labelling of amino acids in culture (SILAC)[43]. […]
visualization were performed as described above. Images were quantified with ImageJ and kinetics values were calculated using GraphPad Prism (V6.03). […]

PPARγ = conditions: cited from earlier work

T1 sequence (Q9BTY7 whole entry): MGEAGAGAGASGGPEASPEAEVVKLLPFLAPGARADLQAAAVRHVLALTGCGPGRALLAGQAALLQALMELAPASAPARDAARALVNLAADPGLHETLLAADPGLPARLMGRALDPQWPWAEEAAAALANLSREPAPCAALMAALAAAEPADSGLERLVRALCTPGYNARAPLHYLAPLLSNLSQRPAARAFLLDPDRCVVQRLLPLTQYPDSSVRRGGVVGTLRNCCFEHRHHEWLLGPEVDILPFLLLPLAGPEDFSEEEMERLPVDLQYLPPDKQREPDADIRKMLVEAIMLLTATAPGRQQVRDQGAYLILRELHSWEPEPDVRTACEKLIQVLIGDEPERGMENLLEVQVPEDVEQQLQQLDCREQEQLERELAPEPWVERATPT

SMILES: C=C(C)C(=O)O[C@H]1CC2=C[C@@H](C/C(C)=C/[C@H]3OC(=O)C(=C)[C@H]13)OC2=O [deoxyelephantopin]
- SILAC ratio 20 µM Deoxyelephantopin/DMSO with 24c [1]: 0.20
- action on PPARγ (SPR) (PPARγ): partial agonist
